PMC6318274, “Lattice engineering enables definition of molecular features allowing for potent small-molecule inhibition of HIV-1 entry” (Nature Communications, 2019)
Several values for one entry are separate records, joined by “and”; a condition that tells them apart may be missing. Identical values can stand only once. Like-named read-outs stand apart in the source and are kept apart here.

Key:
[1] = target: BG505 DS-SOSIP.664 Env trimer (Human immunodeficiency virus 1, UniProt Q2N0S5, A430C/A498C/I200C/I556P/T330N/T602C, form not given); format: binding, HIV-1; conditions: ITC, 37 °C
[2] = system: HIV-1 strain NL4-3; conditions: cited from earlier work
[3] = system: HIV-1 Env-pseudoviruses (30-strain panel); assay: Neutralization assay, cross-clade 30-strain panel (Env-pseudoviruses, TZM-bl target cells); format: cell-based
Method: Neutralization was measured using single-round-of-infection HIV-1 Env-pseudoviruses and TZM-bl target cells (ARP Cat No. #8129)[44],[45]. Compounds were prepared at 400 μM with 4% DMSO (dimethyl sulfoxide) in PBS (phosphate-buffered saline) and diluted 20 times as the starting concentration for serial dilution in the neutralization assays. […] After incubation at 37 °C for 2 days, infection of target cells was measured by luciferase activity. Neutralization curves were fit by nonlinear regression using a five-parameter hill slope equation[45].

[4] = system: SVA.MLV; design: method as in earlier work; conditions: clade NA; cited from earlier work
[5] = system: SIVmac251.30.SG3; design: method as in earlier work; conditions: SIVmac251.30.SG3, clade NA; cited from earlier work
[6] = system: SVA.MLV; assay: Neutralization assay, control virus SVA.MLV; format: cell-based; conditions: clade NA
Method: (§1) Neutralization was measured using single-round-of-infection HIV-1 Env-pseudoviruses and TZM-bl target cells (ARP Cat No. #8129)[44],[45]. Compounds were prepared at 400 μM with 4% DMSO (dimethyl sulfoxide) in PBS (phosphate-buffered saline) and diluted 20 times as the starting concentration for serial dilution in the neutralization assays. Pseudoviruses of ten strains from HIV-1 clades A, B, and C were incubated with serial dilutions of drug compounds, then added to TZM-bl target cells which have a luciferase reporter gene. After incubation at 37 °C for 2 days, infection of target cells was measured by luciferase activity. Neutralization curves were fit by nonlinear regression using a five-parameter hill slope equation[45].

[7] = system: HIV-1 strain NL4-3; assay: Entry inhibition of laboratory-adapted HIV-1 strain NL4-3; format: cell-based; conditions: Human immunodeficiency virus 1, NL43; NL4-3
[8] = system: SIVmac251.30.SG3; assay: Neutralization assay, control virus SIVmac251.30.SG3; format: cell-based, SIV; conditions: Simian immunodeficiency virus; SIVmac251.30.SG3, clade NA
Method: as §1

[9] = Human immunodeficiency virus 1, TZM-bl, 242-14 (Clade AG), read-out: IC50
[10] = Human immunodeficiency virus 1, TZM-bl, 247-23 (Clade D), read-out: IC50
[11] = Human immunodeficiency virus 1, TZM-bl, 0330.v4.c3 (Clade A), read-out: IC50
[12] = Human immunodeficiency virus 1, TZM-bl, 426c (Clade C), read-out: IC50
[13] = Human immunodeficiency virus 1, TZM-bl, 7165.18 (Clade B), read-out: IC50
[14] = Human immunodeficiency virus 1, TZM-bl, B41 (Clade B), read-out: IC50
[15] = Human immunodeficiency virus 1, TZM-bl, BJOX028000.10.3 (Clade AE), read-out: IC50
[16] = Human immunodeficiency virus 1, TZM-bl, BL01.DG (Clade B), read-out: IC50
[17] = Human immunodeficiency virus 1, TZM-bl, C4118.09 (Clade AE), read-out: IC50
[18] = Human immunodeficiency virus 1, TZM-bl, CAP210.E8 (Clade C), read-out: IC50
[19] = Human immunodeficiency virus 1, TZM-bl, CH119.10 (Clade BC), read-out: IC50
[20] = Human immunodeficiency virus 1, TZM-bl, CNE10 (Clade B), read-out: IC50
[21] = Human immunodeficiency virus 1, TZM-bl, CNE20 (Clade BC), read-out: IC50
[22] = Human immunodeficiency virus 1, TZM-bl, CNE56 (Clade AE), read-out: IC50
[23] = Human immunodeficiency virus 1, TZM-bl, DJ263.8 (Clade AG), read-out: IC50
[24] = Human immunodeficiency virus 1, TZM-bl, DU156.12 (Clade C), read-out: IC50
[25] = Human immunodeficiency virus 1, TZM-bl, Geomean, 30-strain panel, read-out: Geometric mean IC50
[26] = Human immunodeficiency virus 1, TZM-bl, KER2008.12 (Clade A), read-out: IC50
[27] = Human immunodeficiency virus 1, TZM-bl, MB201.A1 (Clade A), read-out: IC50
[28] = Human immunodeficiency virus 1, TZM-bl, NKU3006.ec1 (Clade D), read-out: IC50
[29] = Human immunodeficiency virus 1, TZM-bl, P0402.c2.11 (Clade G), read-out: IC50
[30] = Human immunodeficiency virus 1, TZM-bl, PVO.04 (Clade B), read-out: IC50
[31] = Human immunodeficiency virus 1, TZM-bl, R3265.c6 (Clade AE), read-out: IC50
[32] = Human immunodeficiency virus 1, TZM-bl, REJO.67 (Clade B), read-out: IC50
[33] = Human immunodeficiency virus 1, TZM-bl, T253-11 (Clade AG), read-out: IC50
[34] = Human immunodeficiency virus 1, TZM-bl, T280-5 (Clade AG), read-out: IC50
[35] = Human immunodeficiency virus 1, TZM-bl, ZM106.9 (Clade C), read-out: IC50

## COc1cnc(-n2cnc(C)n2)c2[nH]cc(C(=O)C(=O)N3CCN(C(=O)c4ccccc4)CC3)c12 [BMS-626529]
[1]
  -TΔS: +7.7 kcal/mol
  ΔG: -9.1 kcal/mol
  ΔH: -16.8 kcal/mol
[2]
  EC50: 2.2 ± 0.6 nM
[3]; Geomean, 30-strain panel, read-out: Geometric mean IC50
  IC50: ~40 nM
[3]; [9]
  IC50: 24 nM
[3]; [10]
  IC50: 9 nM
[3]; [11]
  IC50: 185 nM
[3]; [12]
  IC50: 5 nM
[3]; [13]
  IC50: 20 nM
[3]; [14]
  IC50: 0.7 nM
[3]; [15]
  IC50: > 20000 nM
[3]; [16]
  IC50: 12400 nM
[3]; [17]
  IC50: 6210 nM
[3]; [18]
  IC50: 66 nM
[3]; [19]
  IC50: 5 nM
[3]; [20]
  IC50: 2 nM
[3]; [21]
  IC50: 878 nM
[3]; [22]
  IC50: > 20000 nM
[3]; [23]
  IC50: 12 nM
[3]; [24]
  IC50: 2 nM
[3]; [25]
  IC50: > 40 nM
[3]; [26]
  IC50: 758 nM
[3]; [27]
  IC50: 474 nM
[3]; [28]
  IC50: 2 nM
[3]; [29]
  IC50: 17 nM
[3]; [30]
  IC50: 0.9 nM
[3]; [31]
  IC50: 5840 nM
[3]; [32]
  IC50: 205 nM
[3]; [33]
  IC50: 0.5 nM
[3]; [34]
  IC50: 3 nM
[3]; [35]
  IC50: 16 nM
[3]; Human immunodeficiency virus 1, TZM-bl, read-out: IC50
  IC50: 5 nM
[4]
  IC50: > 20000 nM
[5]
  IC50: > 20000 nM

## COc1cnc(-c2csc(C(=O)NCCO)n2)c2[nH]cc(C(=O)C(=O)N3CCC(=C(C#N)c4ccccc4)CC3)c12 [BMS-818251]
[6]
  IC50: > 20000 nM
[7]
  EC50: 0.019 ± 0.003 nM
[1]
  -TΔS: +4.5 kcal/mol
  ΔG: -10.4 kcal/mol
  ΔH: -14.9 kcal/mol
[1]; read-out: Kd (affinity)
  Kd: 47 nM
[3]; Human immunodeficiency virus 1, TZM-bl
  IC50: < 0.3 nM and < 0.0002 µg/mL
[3]; [9]
  IC50: < 0.3 nM
[3]; Human immunodeficiency virus 1, TZM-bl, 242-14.SG3 (Clade AG), read-out: IC50
  IC50: < 0.2 ng/mL
[3]; [10]
  IC50: < 0.3 nM
[3]; Human immunodeficiency virus 1, TZM-bl, 247-23.SG3 (Clade D), read-out: IC50
  IC50: < 0.2 ng/mL
[3]; [11]
  IC50: 4 nM
[3]; Human immunodeficiency virus 1, TZM-bl, 0330.v4.c3.SG3 (Clade A), read-out: IC50
  IC50: 2.3 ng/mL
[3]; [12]
  IC50: 0.4 nM
[3]; Human immunodeficiency virus 1, TZM-bl, 426c.SG3 (Clade C), read-out: IC50
  IC50: < 0.2 ng/mL
[3]; [13]
  IC50: 13 nM
[3]; Human immunodeficiency virus 1, TZM-bl, 7165.18.SG3 (Clade B), read-out: IC50
  IC50: 7.4 ng/mL
[3]; Human immunodeficiency virus 1, TZM-bl, A03349M1.vrc4a.SG3 (Clade D), read-out: IC50
  IC50: < 0.2 ng/mL
[3]; [14]
  IC50: < 0.3 nM
[3]; Human immunodeficiency virus 1, TZM-bl, B41.SG3 (Clade B), read-out: IC50
  IC50: < 0.2 ng/mL
[3]; [15]
  IC50: 733 nM
[3]; Human immunodeficiency virus 1, TZM-bl, BJOX028000.10.3.SG3 (Clade AE), read-out: IC50
  IC50: 418 ng/mL
[3]; [16]
  IC50: 533 nM
[3]; Human immunodeficiency virus 1, TZM-bl, BL01.DG.SG3 (Clade B), read-out: IC50
  IC50: 304 ng/mL
[3]; [17]
  IC50: 89 nM
[3]; Human immunodeficiency virus 1, TZM-bl, C4118.09.SG3 (Clade AE), read-out: IC50
  IC50: 50.7 ng/mL
[3]; [18]
  IC50: 22 nM
[3]; Human immunodeficiency virus 1, TZM-bl, CAP210.E8.SG3 (Clade C), read-out: IC50
  IC50: 12.5 ng/mL
[3]; [19]
  IC50: < 0.3 nM
[3]; Human immunodeficiency virus 1, TZM-bl, CH119.10.SG3 (Clade BC), read-out: IC50
  IC50: < 0.2 ng/mL
[3]; [20]
  IC50: < 0.3 nM
[3]; Human immunodeficiency virus 1, TZM-bl, CNE10.SG3 (Clade B), read-out: IC50
  IC50: < 0.2 ng/mL
[3]; [21]
  IC50: 6 nM
[3]; Human immunodeficiency virus 1, TZM-bl, CNE20.SG3 (Clade BC), read-out: IC50
  IC50: 3.4 ng/mL
[3]; [22]
  IC50: 471 nM
[3]; Human immunodeficiency virus 1, TZM-bl, CNE56.SG3 (Clade AE), read-out: IC50
  IC50: 268 ng/mL
[3]; [23]
  IC50: < 0.3 nM
[3]; Human immunodeficiency virus 1, TZM-bl, DJ263.8.SG3 (Clade AG), read-out: IC50
  IC50: < 0.2 ng/mL
[3]; [24]
  IC50: < 0.3 nM
[3]; Human immunodeficiency virus 1, TZM-bl, DU156.12.SG3 (Clade C), read-out: IC50
  IC50: < 0.2 ng/mL
[3]; [25]
  IC50: ~2 nM
[3]; [26]
  IC50: 11 nM
[3]; Human immunodeficiency virus 1, TZM-bl, KER2008.12.SG3 (Clade A), read-out: IC50
  IC50: 6.3 ng/mL
[3]; [27]
  IC50: 14 nM
[3]; Human immunodeficiency virus 1, TZM-bl, MB201.A1.SG3 (Clade A), read-out: IC50
  IC50: 8 ng/mL
[3]; [28]
  IC50: < 0.3 nM
[3]; Human immunodeficiency virus 1, TZM-bl, NKU3006.ec1.SG3 (Clade D), read-out: IC50
  IC50: < 0.2 ng/mL
[3]; [29]
  IC50: < 0.3 nM
[3]; Human immunodeficiency virus 1, TZM-bl, P0402.c2.11.SG3 (Clade G), read-out: IC50
  IC50: < 0.2 ng/mL
[3]; [30]
  IC50: < 0.3 nM
[3]; Human immunodeficiency virus 1, TZM-bl, PVO.04.SG3 (Clade B), read-out: IC50
  IC50: < 0.2 ng/mL
[3]; [31]
  IC50: 32 nM
[3]; Human immunodeficiency virus 1, TZM-bl, R3265.c6.SG3 (Clade AE), read-out: IC50
  IC50: 18.2 ng/mL
[3]; [32]
  IC50: 450 nM
[3]; Human immunodeficiency virus 1, TZM-bl, REJO.67.SG3 (Clade B), read-out: IC50
  IC50: 256 ng/mL
[3]; [33]
  IC50: < 0.3 nM
[3]; Human immunodeficiency virus 1, TZM-bl, T253-11.SG3 (Clade AG), read-out: IC50
  IC50: < 0.2 ng/mL
[3]; [34]
  IC50: < 0.3 nM
[3]; Human immunodeficiency virus 1, TZM-bl, T280-5.SG3 (Clade AG), read-out: IC50
  IC50: < 0.2 ng/mL
[3]; [35]
  IC50: 0.5 nM
[3]; Human immunodeficiency virus 1, TZM-bl, ZM106.9.SG3 (Clade C), read-out: IC50
  IC50: 0.3 ng/mL
[3]; Human immunodeficiency virus 1, TZM-bl, geomean, 30-strain panel, read-out: Geometric mean IC50
  IC50: < 0.2 ng/mL
[3]; Human immunodeficiency virus 1, TZM-bl, read-out: Geometric mean IC50
  IC50: < 2 nM
[8]
  IC50: > 20000 nM
